Reference: patent US12285450B2, “Lactiplantibacillus plantarum effectively inhibiting multi-drug-resistant Klebsiella pneumoniae and use thereof” (priority 2023, dated 2025)
Like-named read-outs stand apart in the source and are kept apart here.

Tested on: Klebsiella pneumoniae ZFM4
Test: Antibiotic resistance of ZFM4 by disk diffusion method
Type: cell-based
Conditions: for antibiotic resistance of ZFM4 (in words): disk diffusion method
Method: The antibiotic susceptibility test disk was purchased from Hangzhou Microbial Reagent Co., Ltd., including amoxicillin, cefuroxime, gentamycin, erythromycin, vancomycin, tetracycline, penicillin, ciprofloxacin, streptomycin, and chloramphenicol.
The antibiotic resistance of Klebsiella pneumoniae ZFM4 was evaluated by disk diffusion method. 100 μL of the second-generation bacterial culture of Klebsiella pneumoniae ZFM4 was coated on LB solid medium and the antibiotic susceptibility test disk was placed on the plate. After aerobically incubation at 37° C. for 48 hrs, the diameter of the inhibition zone was measured. […] That is, Klebsiella pneumoniae ZFM4 had multiple drug resistance.

Question: How did the zone of inhibition at 5 µg/disc (Klebsiella pneumoniae, ZFM4, Ciprofloxacin disk 5 μg/tablet, 37° C., 48 hrs, read-out: Drug resistance evaluation result) turn out when O=C(O)c1cn(C2CC2)c2cc(N3CCNCC3)c(F)cc2c1=O [Ciprofloxacin] was run?
Answer: Its zone of inhibition at 5 µg/disc is 15 to 21 mm.

Question: And the “antibiotic resistance of ZFM4 (in words)” value?
Answer: The value was “moderately resistant”.

Question: For Gentamicin, which “Drug resistance evaluation result” value (Gentamicin disk 10 μg/tablet, 37° C., 48 hrs) is on record?
Answer: The value was “R (≤12)”.

Question: And the “antibiotic resistance of ZFM4 (in words)” value?
Answer: The value was “resistant”.

Question: For O=C(N[C@H](CO)[C@H](O)c1ccc([N+](=O)[O-])cc1)C(Cl)Cl [Chloramphenicol], which zone of inhibition at 30 µg/disc (Klebsiella pneumoniae, ZFM4, Chloramphenicol disk 30 μg/tablet, 37° C., 48 hrs, read-out: Drug resistance evaluation result) is on record?
Answer: The zone of inhibition at 30 µg/disc was < 12 mm.

Question: And the “antibiotic resistance of ZFM4 (in words)” value?
Answer: The value was “resistant”.

Question: [H]/N=C(/N)N[C@H]1[C@H](O)[C@@H](O)[C@H](O[C@@H]2O[C@@H](C)[C@](O)(C=O)[C@H]2O[C@@H]2O[C@@H](CO)[C@H](O)[C@@H](O)[C@@H]2NC)[C@@H](N/C(N)=N\[H])[C@@H]1O [Streptomycin] was tested. Which zone of inhibition at 10 µg/disc (Klebsiella pneumoniae, ZFM4, Streptomycin disk 10 μg/tablet, 37° C., 48 hrs, read-out: Drug resistance evaluation result) did it give?
Answer: Its zone of inhibition at 10 µg/disc is 11 to 15 mm.

Question: And the “antibiotic resistance of ZFM4 (in words)” value?
Answer: The value was “moderately resistant”.

Question: CN(C)[C@@H]1C(O)=C(C(N)=O)C(=O)[C@@]2(O)C(O)=C3C(=O)c4c(O)cccc4[C@@](C)(O)[C@H]3C[C@@H]12 [Tetracycline] was tested. Which zone of inhibition at 30 µg/disc (Klebsiella pneumoniae, ZFM4, Tetracycline disk 30 μg/tablet, 37° C., 48 hrs, read-out: Drug resistance evaluation result) did it give?
Answer: The zone of inhibition at 30 µg/disc was > 15 mm.

Question: CN[C@H](CC(C)C)C(=O)N[C@H]1C(=O)N[C@@H](CC(N)=O)C(=O)N[C@H]2C(=O)N[C@H]3C(=O)N[C@H](C(=O)N[C@H](C(=O)O)c4cc(O)cc(O)c4-c4cc3ccc4O)[C@H](O)c3ccc(c(Cl)c3)Oc3cc2cc(c3O[C@@H]2O[C@H](CO)[C@@H](O)[C@H](O)[C@H]2O[C@H]2C[C@](C)(N)[C@H](O)[C@H](C)O2)Oc2ccc(cc2Cl)[C@H]1O [Vancomycin] was tested. Which zone of inhibition at 30 µg/disc (Klebsiella pneumoniae, ZFM4, 48 h, read-out: Drug resistance evaluation result) did it give?
Answer: Its zone of inhibition at 30 µg/disc is < 14 mm.

Question: And the “antibiotic resistance of ZFM4 (in words)” value?
Answer: Its value is “resistant”.

Question: Which zone of inhibition at 15 µg/disc (Klebsiella pneumoniae, ZFM4, Erythromycin disk 15 μg/tablet, 37° C., 48 hrs, read-out: Drug resistance evaluation result) does the source give for CC[C@H]1OC(=O)[C@H](C)[C@@H](O[C@H]2C[C@@](C)(OC)[C@@H](O)[C@H](C)O2)[C@H](C)[C@@H](O[C@@H]2O[C@H](C)C[C@H](N(C)C)[C@H]2O)[C@](C)(O)C[C@@H](C)C(=O)[C@H](C)[C@@H](O)[C@]1(C)O [Erythromycin] here?
Answer: Its zone of inhibition at 15 µg/disc is < 13 mm.

Question: And the “antibiotic resistance of ZFM4 (in words)” value?
Answer: The value was “resistant”.

Question: For CO/N=C(\C(=O)N[C@@H]1C(=O)N2C(C(=O)O)=C(COC(N)=O)CS[C@H]12)c1ccco1 [Cefuroxime], which zone of inhibition at 30 µg/disc (Klebsiella pneumoniae, ZFM4, Cefuroxime disk 30 μg/tablet, 37° C., 48 hrs, read-out: Drug resistance evaluation result) is on record?
Answer: The zone of inhibition at 30 µg/disc was < 10 mm.

Question: What about the “antibiotic resistance of ZFM4 (in words)” value of the same compound?
Answer: Its value is “resistant”.

Question: With Penicillin as the compound, how does the “Drug resistance evaluation result” value (Penicillin disk 10 μg/tablet, 37° C., 48 hrs) read?
Answer: The value was “R (≤14)”.

Question: And the “antibiotic resistance of ZFM4 (in words)” value?
Answer: Its value is “resistant”.

Question: For CC1(C)S[C@@H]2[C@H](NC(=O)[C@H](N)c3ccc(O)cc3)C(=O)N2[C@H]1C(=O)O [Amoxicillin], which zone of inhibition at 25 µg/disc (Klebsiella pneumoniae, ZFM4, Amoxicillin disk 25 μg/tablet, 37° C., 48 hrs, read-out: Drug resistance evaluation result) is on record?
Answer: Its zone of inhibition at 25 µg/disc is < 13 mm.

Question: And the “antibiotic resistance of ZFM4 (in words)” value?
Answer: The value was “resistant”.
